{
  "source": "patent US20240408169A1",
  "about": "(priority 2023, published 2024)",
  "key": {"[1]": {"molecular_target": "T1, CyclinE1/CDK2 (Homo sapiens, UniProt P24864)", "T1 construct": "purchased Eurofins, discovery 14-475", "experiment": "Fluorescence Polarization (FP) competitive binding assay, Cyclin E1/Cdk2;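 note: readings taken after two-hour equilibration at room temperature in HEPES buffer with NaCl, DTT, NP-40 and BSA, IC50 fitted from eight-concentration serial dilution series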"}, "[2]": {"tested_on": "NCI-H1048 cells", "experiment": "MTT proliferation assay, NCI-H1048;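 note: Dose-response in 96-well plates over 8 or 10 concentration points, with exposure spanning 3-4 cell doublings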", "format": "cell-based", "details": "5 days compound exposure, 1:3 serial dilution starting at 10 μM"}, "[3]": {"molecular_target": "T2, CyclinB1/CDK1 (Homo sapiens, UniProt P14635)", "T2 construct": "purchased Eurofins, discovery 14-450", "experiment": "Fluorescence Polarization (FP) competitive binding assay, Cyclin B1/Cdk1;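 note: fluorescence polarization read after equilibration at room temperature, with IC50 taken from serially diluted dose-response curves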"}, "[4]": {"molecular_target": "T3, CyclinA2/CDK2 (Homo sapiens, UniProt P20248)", "T3 construct": "purchased CRELUX Protein Services", "experiment": "Fluorescence Polarization (FP) competitive binding assay, Cyclin A2/Cdk2;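 note: plates equilibrated two hours at room temperature before polarization reading, IC50 fitted from eight-concentration compound titration curves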"}, "[5]": {"tested_on": "OVCAR3 cells", "experiment": "MTT proliferation assay, OVCAR3;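 note: compound given as an 8- or 10-point series, one day after plating, with exposure covering roughly 3-4 cell doublings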", "format": "cell-based", "details": "5 days compound exposure, 1:3 serial dilution starting at 10 μM"}, "[6]": {"details": "10 nM Cyclin E1/Cdk2, 2 nM FAM probe, average of 2-3 independent experiments, read-out: Cyclin E FP IC50"}, "[7]": {"details": "10 nM Cyclin B1/Cdk1, 2 nM FAM probe; average of 2-3 independent experiments; read-out: Cyclin B FP IC50"}, "[8]": {"details": "8 nM Cyclin A2/Cdk2, 2 nM FAM probe, average of 2-3 independent experiments, read-out: Cyclin A FP IC50"}},
  "note": "Like-named read-outs stand apart in the source and are kept apart here. *1 amine or outer side, *2 acyl side, *3 side chain or, on linkers, in order; H or OH if unused. Where a SMILES comes first, the peptide text is derived from it. Bridges are numbered along the chain shown (N, C = ends). [ ]: non-standard residue; d: D form. The star is where a group is joined. X42 = CN([C@@H](Cc1cc(Cl)ccc1-c1cnn(S(=O)(=O)C2CC2)c1)C(=O)[*:2])[*:1]; X148 = CN([C@@H](Cc1cc(Cl)ccc1-c1ccc(S(C)(=O)=O)nc1)C(=O)[*:2])[*:1]; NMePhe(5-Cl,2-O(2-Pym)) = CN[C@@H](Cc1cc(Cl)ccc1Oc1ncccn1)C(=O)O; X184 = CC(=O)N1CCC(c2ccc(F)cc2C[C@@H](C(=O)[*:2])N(C)[*:1])CC1; X189 = CN([C@@H](Cc1cc(Cl)ccc1-c1ccc2scnc2c1)C(=O)[*:2])[*:1]; X162 = COc1cncc(-c2ccc(Cl)cc2C[C@@H](C(=O)[*:2])N(C)[*:1])c1; NMehhhLys(Me) = CN([C@@H](CCCCCCCN(C)[*:3])C(=O)[*:2])[*:1]; X125 = CN([C@@H](Cc1cc(Cl)ccc1-c1cncc(F)c1)C(=O)[*:2])[*:1]; NMe3Pal(2-OcPr,5-F) = CN[C@@H](Cc1cc(F)cnc1OC1CC1)C(=O)O; NMe(hhhLys) = CN([C@@H](CCCCCCCN[*:3])C(=O)[*:2])[*:1]; cBuCO(3,3-F2-1-CF3) = O=C(C1(C(F)(F)F)CC(F)(F)C1)*; Pro(trans-4-F) = O=C(O)[C@@H]1C[C@@H](F)CN1; Gly(cPr) = N[C@H](C(=O)O)C1CC1",
  "data": [
    {"smiles": "COc1cncc(-c2ccc(Cl)cc2C[C@H]2C(=O)N(C)CCCCCCC[C@H](N(C)C(=O)[C@@H](NC(=O)[C@@H]3C[C@@H](F)CN3C(=O)C3(C(F)(F)F)CC(F)(F)C3)C3CC3)C(=O)N[C@@H](CC(C)C)C(=O)N2C)c1", "note": "[Example 199] ({cBuCO(3,3-F2-1-CF3)}-[Pro(trans-4-F)][Gly(cPr)][NMehhhLys(Me)]L[X162]; lactam 3-C)", "values": [
      {"measurement": "IC50", "setting": "[1]; [6]", "result": 910, "unit": "nM"},
      {"measurement": "GI50", "setting": "[2]", "result": 30, "unit": "nM"},
      {"measurement": "IC50", "setting": "[3]; [7]", "result": 20, "unit": "nM"},
      {"measurement": "IC50", "setting": "[4]; [8]", "result": 30, "unit": "nM"},
      {"measurement": "GI50", "setting": "[5]", "result": 50, "unit": "nM"}
    ]},
    {"smiles": "CC(C)C[C@@H]1NC(=O)[C@@H](N(C)C(=O)[C@@H](NC(=O)[C@@H]2C[C@@H](F)CN2C(=O)C2(C(F)(F)F)CC(F)(F)C2)C2CC2)CCCCCCCN(C)C(=O)[C@H](Cc2cc(Cl)ccc2Oc2ncccn2)N(C)C1=O", "note": "[Example 155] ({cBuCO(3,3-F2-1-CF3)}-[Pro(trans-4-F)][Gly(cPr)][NMehhhLys(Me)]L[NMePhe(5-Cl,2-O(2-Pym))]; lactam 3-C)", "values": [
      {"measurement": "IC50", "setting": "[1]; [6]", "result": 410, "unit": "nM"},
      {"measurement": "GI50", "setting": "[2]", "result": 10, "unit": "nM"},
      {"measurement": "IC50", "setting": "[3]; [7]", "result": 20, "unit": "nM"},
      {"measurement": "IC50", "setting": "[4]; [8]", "result": 100, "unit": "nM"},
      {"measurement": "GI50", "setting": "[5]", "result": 20, "unit": "nM"}
    ]},
    {"smiles": "CC(=O)N1CCC(c2ccc(F)cc2C[C@H]2C(=O)N(C)CCCCCCC[C@H](N(C)C(=O)[C@@H](NC(=O)[C@@H]3C[C@@H](F)CN3C(=O)C3(C(F)(F)F)CC(F)(F)C3)C3CC3)C(=O)N[C@@H](CC(C)C)C(=O)N2C)CC1", "note": "[Example 45, (2S,4R)—N—((S)-2-(((3S,6S,9S)-3-(2-(1-acetylpiperidin-4-yl)-5-fluorobenzyl)-6-isobutyl-1,4-dimethyl-2,5,8-trioxo-1,4,7-triazacyclohexadecan-9-yl)(methyl)amino)-1-cyclopropyl-2-oxoethyl)-1-(3,3-difluoro-1-(trifluoromethyl)cyclobutane-1-carbonyl)-4-fluoropyrrolidine-2-carboxamide] ({cBuCO(3,3-F2-1-CF3)}-[Pro(trans-4-F)][Gly(cPr)][NMehhhLys(Me)]L[X184]; lactam 3-C)", "values": [
      {"measurement": "IC50", "setting": "[1]; [6]", "result": 330, "unit": "nM"},
      {"measurement": "GI50", "setting": "[2]", "result": 20, "unit": "nM"},
      {"measurement": "IC50", "setting": "[3]; [7]", "result": 20, "unit": "nM"},
      {"measurement": "IC50", "setting": "[4]; [8]", "result": 100, "unit": "nM"},
      {"measurement": "GI50", "setting": "[5]", "result": 40, "unit": "nM"}
    ]},
    {"smiles": "CC(C)C[C@@H]1NC(=O)[C@@H](N(C)C(=O)[C@@H](NC(=O)[C@@H]2C[C@@H](F)CN2C(=O)C2(C(F)(F)F)CC(F)(F)C2)C2CC2)CCCCCCCN(C)C(=O)[C@H](Cc2cc(Cl)ccc2-c2ccc(S(C)(=O)=O)nc2)N(C)C1=O", "note": "[Example 201] ({cBuCO(3,3-F2-1-CF3)}-[Pro(trans-4-F)][Gly(cPr)][NMehhhLys(Me)]L[X148]; lactam 3-C)", "values": [
      {"measurement": "IC50", "setting": "[1]", "result": 1950, "unit": "nM"},
      {"measurement": "GI50", "setting": "[2]", "result": 60, "unit": "nM"},
      {"measurement": "IC50", "setting": "[3]; read-out: Cyclin B FP IC50; 10 nM Cyclin B1/Cdk1, 2 nM FAM probe; average of 2-3 independent experiments", "result": 20, "unit": "nM"},
      {"measurement": "IC50", "setting": "[4]", "result": 30, "unit": "nM"},
      {"measurement": "GI50", "setting": "[5]", "result": 60, "unit": "nM"}
    ]},
    {"smiles": "CC(C)C[C@@H]1NC(=O)[C@@H](N(C)C(=O)[C@@H](NC(=O)[C@@H]2C[C@@H](F)CN2C(=O)C2(C(F)(F)F)CC(F)(F)C2)C2CC2)CCCCCCCN(C)C(=O)[C@H](Cc2cc(Cl)ccc2-c2cncc(F)c2)N(C)C1=O", "note": "[Example 198] ({cBuCO(3,3-F2-1-CF3)}-[Pro(trans-4-F)][Gly(cPr)][NMehhhLys(Me)]L[X125]; lactam 3-C)", "values": [
      {"measurement": "IC50", "setting": "[1]; [6]", "result": 1450, "unit": "nM"},
      {"measurement": "GI50", "setting": "[2]", "result": 50, "unit": "nM"},
      {"measurement": "IC50", "setting": "[3]; [7]", "result": 20, "unit": "nM"},
      {"measurement": "IC50", "setting": "[4]; [8]", "result": 50, "unit": "nM"},
      {"measurement": "GI50", "setting": "[5]", "result": 50, "unit": "nM"}
    ]},
    {"smiles": "CC(C)C[C@@H]1NC(=O)[C@@H](N(C)C(=O)[C@@H](NC(=O)[C@@H]2C[C@@H](F)CN2C(=O)C2(C(F)(F)F)CC(F)(F)C2)C2CC2)CCCCCCCN(C)C(=O)[C@H](Cc2cc(Cl)ccc2-c2ccc3scnc3c2)N(C)C1=O", "note": "[Example 169] ({cBuCO(3,3-F2-1-CF3)}-[Pro(trans-4-F)][Gly(cPr)][NMehhhLys(Me)]L[X189]; lactam 3-C)", "values": [
      {"measurement": "IC50", "setting": "[1]; [6]", "result": 1090, "unit": "nM"},
      {"measurement": "GI50", "setting": "[2]", "result": 20, "unit": "nM"},
      {"measurement": "IC50", "setting": "[3]; [7]", "result": 20, "unit": "nM"},
      {"measurement": "IC50", "setting": "[4]; [8]", "result": 30, "unit": "nM"},
      {"measurement": "GI50", "setting": "[5]", "result": 30, "unit": "nM"}
    ]},
    {"smiles": "CC(C)C[C@@H]1NC(=O)[C@@H](N(C)C(=O)[C@@H](NC(=O)[C@@H]2C[C@@H](F)CN2C(=O)C2(C(F)(F)F)CC(F)(F)C2)C2CC2)CCCCCCCNC(=O)[C@H](Cc2cc(F)cnc2OC2CC2)N(C)C1=O", "note": "[Example 127] ({cBuCO(3,3-F2-1-CF3)}-[Pro(trans-4-F)][Gly(cPr)][NMe(hhhLys)]L[NMe3Pal(2-OcPr,5-F)]; lactam 3-C)", "values": [
      {"measurement": "IC50", "setting": "[1]; [6]", "result": 230, "unit": "nM"},
      {"measurement": "GI50", "setting": "[2]", "result": 30, "unit": "nM"},
      {"measurement": "IC50", "setting": "[3]; [7]", "result": 20, "unit": "nM"},
      {"measurement": "IC50", "setting": "[4]; [8]", "result": 80, "unit": "nM"},
      {"measurement": "GI50", "setting": "[5]", "result": 30, "unit": "nM"}
    ]},
    {"smiles": "CC(C)C[C@@H]1NC(=O)[C@@H](N(C)C(=O)[C@@H](NC(=O)[C@@H]2C[C@@H](F)CN2C(=O)C2(C(F)(F)F)CC(F)(F)C2)C2CC2)CC=CCCCCN(C)C(=O)[C@H](Cc2cc(F)ccc2-c2cncnc2)N(C)C1=O", "note": "[Example 38]", "values": [
      {"measurement": "IC50", "setting": "[1]; [6]", "result": 1760, "unit": "nM"},
      {"measurement": "GI50", "setting": "[2]", "result": 60, "unit": "nM"},
      {"measurement": "IC50", "setting": "[3]; [7]", "result": 20, "unit": "nM"},
      {"measurement": "IC50", "setting": "[4]; [8]", "result": 180, "unit": "nM"},
      {"measurement": "GI50", "setting": "[5]", "result": 160, "unit": "nM"}
    ]},
    {"smiles": "CC(C)C[C@@H]1NC(=O)[C@@H](N(C)C(=O)[C@@H](NC(=O)[C@@H]2C[C@@H](F)CN2C(=O)C2(C(F)(F)F)CC(F)(F)C2)C2CC2)CCCCCCCNC(=O)[C@H](Cc2cc(Cl)ccc2-c2cnn(S(=O)(=O)C3CC3)c2)N(C)C1=O", "note": "[Example 300] ({cBuCO(3,3-F2-1-CF3)}-[Pro(trans-4-F)][Gly(cPr)][NMe(hhhLys)]L[X42]; lactam 3-C)", "values": [
      {"measurement": "IC50", "setting": "[1]; [6]", "result": 680, "unit": "nM"},
      {"measurement": "GI50", "setting": "[2]", "result": 30, "unit": "nM"},
      {"measurement": "IC50", "setting": "[3]; [7]", "result": 20, "unit": "nM"},
      {"measurement": "IC50", "setting": "[4]; [8]", "result": 30, "unit": "nM"},
      {"measurement": "GI50", "setting": "[5]", "result": 40, "unit": "nM"}
    ]}
  ]
}
